For test [1], the system named is S. aureus RN450. The test is described as follows: In Vitro Anti-Bacterial Activity Assay (MIC), gram positive. As to conditions: for MIC: Staphylococcus aureus, RN450, 18 h. The format is cell-based.
For test [2], the system named is E. coli mL308 225. Nature of the test: In Vitro Anti-Bacterial Activity Assay (MIC), gram negative. It counts as cell-based. The conditions noted are these: for MIC: Escherichia coli, ML308225, 18 h.
The mark [3] stands for this setting: MIC class, Table 3, read-out: Antibiotic Activity Gram +.
[4] abbreviates: MIC class, Table 3, read-out: Antibiotic Activity Gram −.
Setting [5] is: gram positive bacteria, read-out: Antibiotic Activity Gram + (MIC).
[6] abbreviates: gram negative bacteria, read-out: Antibiotic Activity Gram − (MIC).

Read-outs that look alike come from different tables or passages of the source.

Data on 20 compounds can be found in patent US20150141381A1, “TETRACYCLINE COMPOUNDS HAVING TARGET THERAPEUTIC ACTIVITIES” (Paratek Pharmaceuticals, Inc., priority 2001, published 2015).

In the case of `CN(C)[C@@H]1C(O)=C(C(N)=O)C(=O)[C@@]2(O)C(O)=C3C(=O)c4c(ccc(N)c4O)C[C@H]3C[C@@H]12` [JU], the MIC in test [1] (setting [3]) and in test [2] (setting [4]) was below 4 µg/mL each time.
As to `CC(C)CNCc1cc(N(C)C)c2c(c1O)C(=O)C1=C(O)[C@]3(O)C(=O)C(C(N)=O)=C(O)[C@@H](N(C)C)[C@@H]3C[C@@H]1C2` [drawing 3371], the “Antibiotic Activity Gram + (MIC)” value in test [1] (gram positive bacteria) was “** (compounds with MIC less than or equal to 4 μg/ml are indicated with **)”. For the same compound, the “Antibiotic Activity Gram − (MIC)” value in test [2] (gram negative bacteria) is recorded as “** (compounds with MIC less than or equal to 4 μg/ml are indicated with **)”.
Turning to `C[C@H]1c2ccc(-c3cccc(C=O)c3)c(O)c2C(=O)C2=C(O)[C@]3(O)C(=O)C(C(N)=O)=C(O)[C@@H](N(C)C)[C@@H]3[C@@H](O)[C@@H]21`, the MIC in test [1] (setting [5]) and in test [2] (setting [6]) was below 4 µg/mL throughout.
For `CN(C)c1cc(CN2CCCCC2)c(O)c2c1C[C@H]1C[C@H]3C(N(C)C)C(O)=C(C(N)=O)C(=O)[C@@]3(O)C(O)=C1C2=O` (stereo partly shown), the MIC in test [1] (MIC class, Table 3 (Continued), read-out: Gram+ activity) is below 4 µg/mL; in test [2] (MIC class, Table 3 (Continued), read-out: Gram− activity) it was above 4 µg/mL.
For `CSCc1cc(-c2ccccn2)c2c(c1O)C(=O)C1=C(O)[C@]3(O)C(=O)C(C(N)=O)=C(O)[C@@H](N(C)C)[C@@H]3C[C@@H]1C2`, the MIC in test [1] (setting [5]) is below 4 µg/mL; in test [2] (setting [6]), above 4 µg/mL.
Regarding `CCCCCCOC(=O)NCc1cc(N(C)C)c2c(c1O)C(=O)C1=C(O)[C@]3(O)C(=O)C(C(N)=O)=C(O)[C@@H](N(C)C)[C@@H]3C[C@@H]1C2` [FE], the figures for the MIC in test [1] (setting [3]) and in test [2] (setting [4]) were below 4 µg/mL and above 4 µg/mL, respectively.
In the case of `CCOC(=O)COC1=C(C(N)=O)C(=O)[C@@]2(O)C(O)=C3C(=O)c4c(O)cccc4C[C@H]3C[C@H]2[C@@H]1N(C)C` [OR], the MIC in test [1] (setting [3]) and in test [2] (setting [4]) was above 4 µg/mL in each case.
On to `CN(C)c1cc(NC(=O)Oc2ccccc2)c(O)c2c1C[C@H]1C[C@H]3[C@H](N(C)C)C(O)=C(C(N)=O)C(=O)[C@@]3(O)C(O)=C1C2=O` [drawing 3360], for which the MIC in test [1] (read-out: Antibiotic Activity Gram + (MIC)) and in test [2] (read-out: Antibiotic Activity Gram − (MIC)) was above 4 µg/mL each time.
For the compound `CN(C)c1ccc(-c2cc(C#CC3=CCCCC3)c(O)c3c2C[C@H]2C[C@H]4[C@H](N(C)C)C(O)=C(C(N)=O)C(=O)[C@@]4(O)C(O)=C2C3=O)cc1` [HR], the MIC in test [1] (setting [3]) and in test [2] (setting [4]) was above 4 µg/mL throughout.
Turning to `CN(C)c1cc(-c2ccc3c(c2)OCO3)c(O)c2c1C[C@H]1C[C@H]3[C@H](N(C)C)C(O)=C(C(N)=O)C(=O)[C@@]3(O)C(O)=C1C2=O` [Y], the MIC is below 4 µg/mL in test [1] (setting [3]) and above 4 µg/mL in test [2] (setting [4]).
For `CN(C)[C@@H]1C(O)=C(C(N)=O)C(=O)[C@@]2(O)C(O)=C3C(=O)c4c(O)ccc(C#Cc5cccc(O)c5)c4C[C@H]3C[C@@H]12` [BI], the MIC was below 4 µg/mL in test [1] (setting [3]) and above 4 µg/mL in test [2] (setting [4]).
`CN(C)[C@@H]1C(O)=C(C(N)=O)C(=O)[C@@]2(O)C(O)=C3C(=O)c4c(O)ccc(-c5ccc(NC(=O)c6ccco6)cc5)c4C[C@H]3C[C@@H]12`: the MIC is below 4 µg/mL in test [1] (setting [5]) and above 4 µg/mL in test [2] (setting [6]).
Turning to `CN(C)[C@@H]1C(OCc2ccccc2)=C(C(N)=O)C(=O)[C@@]2(O)C(O)=C3C(=O)c4c(O)ccc(-c5ccc(C(F)(F)F)cc5)c4C[C@H]3C[C@@H]12` [OU], the MIC in test [1] (setting [3]) is below 4 µg/mL; in test [2] (setting [4]) it was above 4 µg/mL.
Regarding `C[C@H]1c2ccc(CNCC(C)(C)C)c(O)c2C(=O)C2=C(O)[C@]3(O)C(=O)C(C(N)=O)=C(O)[C@@H](N(C)C)[C@@H]3[C@@H](O)[C@@H]21` [JG], the MIC in test [1] (setting [3]) and in test [2] (setting [4]) was below 4 µg/mL throughout.
In the case of `CN(C)CCN(C)Cc1ccc(-c2cc(N(C)C)c3c(c2O)C(=O)C2=C(O)[C@]4(O)C(=O)C(C(N)=O)=C(O)[C@@H](N(C)C)[C@@H]4C[C@@H]2C3)[nH]1`, the MIC in test [1] (setting [5]) and in test [2] (setting [6]) was above 4 µg/mL throughout.
Turning to `CN(C)CCC(=O)c1cc(C(C)(C)C)c(O)c2c1C[C@H]1C[C@H]3[C@H](N(C)C)C(O)=C(C(N)=O)C(=O)[C@@]3(O)C(O)=C1C2=O`, the MIC in test [1] (setting [5]) and in test [2] (setting [6]) was below 4 µg/mL throughout.
`CN(C)[C@@H]1C(O)=C(C(N)=O)C(=O)[C@@]2(O)C(O)=C3C(=O)c4c(O)ccc(CNC5CCNCC5)c4C[C@H]3C[C@@H]12` [LD]: the MIC in test [1] (setting [3]) and in test [2] (setting [4]) was above 4 µg/mL each time.
As for `CC(CF)Nc1ccc(-c2ccc(O)c3c2C[C@H]2C[C@H]4[C@H](N(C)C)C(O)=C(C(N)=O)C(=O)[C@@]4(O)C(O)=C2C3=O)cc1` (stereo partly shown), the MIC was below 4 µg/mL in test [1] (setting [5]) and above 4 µg/mL in test [2] (setting [6]).
The matching figures for `CN(C)[C@@H]1C(O)=C(C(N)=O)C(=O)[C@@]2(O)C(O)=C3C(=O)c4c(O)ccc(-c5ccc(CN6CCOCC6)c6ccccc56)c4C[C@H]3C[C@@H]12`: below 4 µg/mL and below 4 µg/mL.
For the compound `CN(C)c1cc(NC(=S)Nc2cc(C(F)(F)F)cc(C(F)(F)F)c2)c(O)c2c1C[C@H]1C[C@H]3[C@H](N(C)C)C(O)=C(C(N)=O)C(=O)[C@@]3(O)C(O)=C1C2=O` [CI], the figures for the MIC in test [1] (setting [3]) and in test [2] (setting [4]) were below 4 µg/mL and above 4 µg/mL, respectively.
